Test results reported in ChEMBL document CHEMBL5365467 (J Med Chem, 2023).
pIC50: −log10 of the molar value.

Assays:
[1] = target: Protein cereblon/Androgen receptor (Homo sapiens, UniProt P10275+Q96SW2); assay: PROTAC activity at AR/CRBN in AR-positive human VCaP cells assessed as induction of androgen receptor degradation measured at 24 hrs; format: cell-based
Androgen receptor = target: T1, Androgen receptor (Homo sapiens, UniProt P10275)
T1 sequence (P10275 whole entry): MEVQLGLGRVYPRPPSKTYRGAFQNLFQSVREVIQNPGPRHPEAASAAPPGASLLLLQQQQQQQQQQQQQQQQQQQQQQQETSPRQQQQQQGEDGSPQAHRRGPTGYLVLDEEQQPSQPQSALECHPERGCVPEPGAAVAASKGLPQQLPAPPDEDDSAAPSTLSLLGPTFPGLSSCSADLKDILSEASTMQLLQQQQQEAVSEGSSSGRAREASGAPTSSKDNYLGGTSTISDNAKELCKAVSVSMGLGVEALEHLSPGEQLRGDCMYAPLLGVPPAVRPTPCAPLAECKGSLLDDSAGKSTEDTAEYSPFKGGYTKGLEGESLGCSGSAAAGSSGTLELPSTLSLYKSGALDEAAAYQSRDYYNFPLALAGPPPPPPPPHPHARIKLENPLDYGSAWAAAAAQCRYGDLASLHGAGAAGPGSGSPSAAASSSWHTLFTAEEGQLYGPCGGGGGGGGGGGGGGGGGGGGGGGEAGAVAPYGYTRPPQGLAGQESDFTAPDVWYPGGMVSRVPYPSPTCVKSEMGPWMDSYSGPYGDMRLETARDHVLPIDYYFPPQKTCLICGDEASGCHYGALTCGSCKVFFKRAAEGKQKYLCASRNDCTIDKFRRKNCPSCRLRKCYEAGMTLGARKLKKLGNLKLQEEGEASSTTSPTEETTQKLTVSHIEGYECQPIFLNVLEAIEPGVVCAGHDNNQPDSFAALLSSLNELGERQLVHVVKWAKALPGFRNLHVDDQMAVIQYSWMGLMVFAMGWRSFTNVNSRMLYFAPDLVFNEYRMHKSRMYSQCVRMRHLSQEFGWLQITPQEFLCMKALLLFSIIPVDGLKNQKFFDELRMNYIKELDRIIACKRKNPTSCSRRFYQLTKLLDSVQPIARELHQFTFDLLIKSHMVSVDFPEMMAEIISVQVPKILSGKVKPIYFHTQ

[2] = target: Protein cereblon/Androgen receptor (Homo sapiens, UniProt P10275+Q96SW2, T878A); assay: PROTAC activity at AR T878A mutant/CRBN in human LNCaP cells assessed as induction of androgen receptor degradation measured at 24 hrs by Western blot analysis; format: cell-based
VCaP = assay: Growth inhibition in human VCaP cells

Sequence of Protein cereblon/Androgen receptor (Homo sapiens, UniProt P10275+Q96SW2) (Q96SW2 whole entry, one chain of several): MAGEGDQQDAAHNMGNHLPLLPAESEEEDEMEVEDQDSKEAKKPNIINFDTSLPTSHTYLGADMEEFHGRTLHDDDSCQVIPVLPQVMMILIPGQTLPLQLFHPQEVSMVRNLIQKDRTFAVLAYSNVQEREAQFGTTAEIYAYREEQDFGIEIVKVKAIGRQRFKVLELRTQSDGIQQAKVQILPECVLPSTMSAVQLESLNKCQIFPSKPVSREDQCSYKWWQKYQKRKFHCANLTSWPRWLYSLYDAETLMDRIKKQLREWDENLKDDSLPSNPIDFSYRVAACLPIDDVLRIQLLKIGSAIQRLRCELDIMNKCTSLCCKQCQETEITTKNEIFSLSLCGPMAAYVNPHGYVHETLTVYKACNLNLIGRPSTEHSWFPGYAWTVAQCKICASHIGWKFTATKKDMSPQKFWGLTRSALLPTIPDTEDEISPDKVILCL

SMILES	DC50 ([1]; read-out: DC50) [nM]	pIC50 (Androgen receptor)	also measured
N#Cc1ccc(N2CCC3(CCN(c4ccc(C(=O)N5CCC(CN6Cc7cc8c(cc7C6)C(=O)N(C6CCC(=O)NC6=O)C8=O)CC5)cc4)CC3)C2)cc1Cl (stereo not given)	5.7		
N#Cc1ccc(N2CCC3(CCN(c4ccc(C(=O)N5CCC(CCN6CCc7cc8c(cc7CC6)C(=O)N(C6CCC(=O)NC6=O)C8=O)CC5)cc4)CC3)C2)cc1Cl (stereo not given)	3000		
CN1CCN(c2ccc(C(=O)N3CCC4(C3)CN(c3ccc(C#N)c(Cl)c3)C4)cc2)CC1		5.00	
N#Cc1ccc(N2CCC3(CCN(c4ccc(C(=O)N5CCC(N6CCc7cc8c(cc7C6)C(=O)N(C6CCC(=O)NC6=O)C8=O)CC5)cc4)CC3)C2)cc1Cl (stereo not given)	73		
CN1CCN(C(=O)c2ccc(N3CCC4(CCN(c5ccc(C#N)c(Cl)c5)C4)C3)cc2)CC1 (stereo not given)		5.74	
C[C@@H]1CC2(CCN(c3ccc(C(=O)N4CCN(C)CC4)cc3)CC2)CN1c1ccc(C#N)c(Cl)c1			DC50 [1]: Not Active
C[C@H]1CC2(CCN(c3ccc(C(=O)N4CCC(O)(CN5Cc6cc7c(cc6C5)C(=O)N(C5CCC(=O)NC5=O)C7=O)CC4)cc3)CC2)CN1c1ccc(C#N)c(Cl)c1 (stereo not given in full)	290		
C[C@H]1CC2(CCN(c3ccc(C(=O)N4CCC(CN5Cc6cc7c(cc6C5)C(=O)N(C5CCC(=O)NC5=O)C7=O)CC4)cn3)CC2)CN1c1ccc(C#N)c(Cl)c1 (stereo not given in full)	2.3		DC50 [2]: 2.2 nM; pIC50 (VCaP): 7.96
N#Cc1ccc(N2CCC3(CCN(c4ccc(C(=O)N5CCC(CN6CCc7cc8c(cc7C6)C(=O)N(C6CCC(=O)NC6=O)C8=O)CC5)cc4)CC3)C2)cc1Cl (stereo not given)	25		
CN1CCN(c2ccc(C(=O)N3CCC4(CC3)CCN(c3ccc(C#N)c(Cl)c3)C4)cc2)CC1		5.44	
N#Cc1ccc(N2CCC3(CCN(c4ccc(C(=O)N5CCC(N6Cc7cc8c(cc7C6)C(=O)N(C6CCC(=O)NC6=O)C8=O)CC5)cc4)CC3)C2)cc1Cl (stereo not given)	9.7		
CC[C@H]1CC2(CCN(c3ccc(C(=O)N4CCC(CN5Cc6cc7c(cc6C5)C(=O)N(C5CCC(=O)NC5=O)C7=O)CC4)cc3)CC2)CN1c1ccc(C#N)c(Cl)c1 (stereo not given in full)			pIC50 (VCaP): 7.64
CN1CCN(c2ccc(C(=O)N[C@H]3CC[C@H](N(C)c4ccc(C#N)c(Cl)c4)CC3)cc2)CC1		7.82	
C[C@H]1CC2(CCN(c3ccc(C(=O)N4CCC(CN5Cc6cc7c(cc6C5)C(=O)N(C5CCC(=O)NC5=O)C7=O)CC4)nc3)CC2)CN1c1ccc(C#N)c(Cl)c1 (stereo not given in full)	15.6		DC50 [2]: 4.6 nM; pIC50 (VCaP): 7.34
CN1CCN(c2ccc(C(=O)N3CCC4(CCN(c5ccc(C#N)c(Cl)c5)CC4)C3)cc2)CC1		5.30	
CN1CCN(c2ccc(C(=O)N3CCC4(CC3)CN(c3ccc(C#N)c(Cl)c3)C4)cc2)CC1		< 5.00	
CN1CCN(C(=O)c2ccc(N3CCC4(CCN(c5ccc(C#N)c(Cl)c5)CC4)C3)cc2)CC1		5.27	
C[C@@H]1CC2(CCN(c3ccc(C(=O)N4CCC(CN5Cc6cc7c(cc6C5)C(=O)N(C5CCC(=O)NC5=O)C7=O)CC4)cc3)CC2)CN1c1ccc(C#N)c(Cl)c1 (stereo not given in full)	385		
CN1CCN(c2ccc(C(=O)N[C@H]3CC[C@H](Oc4ccc(C#N)c(Cl)c4)CC3)cc2)CC1		7.26	
CN1CCN(c2ccc(C(=O)N3CCC4(CCN(c5ccc(C#N)c(Cl)c5)C4)C3)cc2)CC1 (stereo not given)		5.16	
CN1CCN(C(=O)c2ccc(N3CCC4(CC3)CCN(c3ccc(C#N)c(Cl)c3)C4)cc2)CC1		7.10	
